Results from patent publication US9169270B2, “1-phenyl-substituted heterocyclyl derivatives and their use as prostaglandin D2 receptor modulators” (Actelion Pharmaceuticals Ltd., priority 2012, dated 2015).

Biological target: hCRTH2 receptor (Homo sapiens (Human), UniProt Q9Y5Y4)
Test: hCRTH2 receptor membranes radioligand (3H-PGD2) displacement assay
Details: hCRTH2 membrane fragments, Binding-Buffer with 0.1% BSA
Protocol: Biological Assays: Preparation of hCRTH2 Receptor Membranes and Radioligand Displacement Assay:
First, recombinant HEK293-hCRTH2 cells were detached from culture plates into 5 ml buffer A/plate (Buffer A: 5 mM Tris, 1 mM MgCl2-6H2O pH=7.4) using a rubber policeman. Cells were then transferred into centrifugation tubes and centrifuged for 5 min at 400 g. The cell pellet was resuspended in the same buffer and tubes were frozen at −80° C. Cells were thawed and membrane fragments were generated by homogenization using a polytron homogenizer (30 seconds). The membrane fragments were then centrifuged at 3000 g for 20 minutes and resuspended in buffer C (Buffer C: 75 mM Tris, 25 mM MgCl2, 250 mM Saccharose pH 7.4). Aliquots of membrane fragments were stored at −20° C.
Binding assay was performed in a final assay volume of 250 μl. First, 25 μl of test compound, previously diluted in Binding-Buffer (Binding-Buffer: 50 mM Tris-Base, 100 mM NaCl, 1 mM EDTA, 0.1% BSA (protease free), 0.01% NaN3, 10 mM MnCl2, pH 7.0) was placed into each well. […] Binding assay was started by addition of 100 μl CRTH2 membrane fragments, reaching a final concentration of 20 μg/well. For non-specific binding, PGD2 was added to the reaction mixture to […] final concentration. This assay mix was incubated for 90 minutes at room temperature and then filtered through a GF/C filter 96-well plate which was pre-soaked for 3 hours in 0.5% polyethyleneimine (PEI). The filter-wells were washed three times with ice cold Binding-Buffer. Then, 40 μl of Microscint-40 (Packard) was added to each well and the retained radioactivity quantified in a Topcount (Packard).

hCRTH2 receptor, sequence (Q9Y5Y4 whole entry): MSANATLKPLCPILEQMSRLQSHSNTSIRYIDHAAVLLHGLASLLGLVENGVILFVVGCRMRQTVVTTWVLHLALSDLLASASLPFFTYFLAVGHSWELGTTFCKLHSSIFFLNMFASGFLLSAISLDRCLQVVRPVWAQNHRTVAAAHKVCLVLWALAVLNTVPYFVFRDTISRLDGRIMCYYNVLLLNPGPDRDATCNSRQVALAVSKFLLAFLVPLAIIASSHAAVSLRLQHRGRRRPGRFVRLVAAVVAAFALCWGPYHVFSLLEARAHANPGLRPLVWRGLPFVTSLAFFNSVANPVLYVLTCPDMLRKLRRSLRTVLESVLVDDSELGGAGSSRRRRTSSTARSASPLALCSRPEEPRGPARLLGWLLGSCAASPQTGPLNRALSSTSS

Structure (SMILES)	IC50 [nM]
CCC(C)(C)COC(=O)N1CCc2ncsc2[C@H]1c1cc(Cl)ccc1OCC(=O)O [Example 60, (R)-4-(2-Carboxymethoxy-5-chloro-phenyl)-6,7-dihydro-4H-thiazolo[5,4-c]pyridine-5-carboxylic acid 2,2-dimethyl-butyl ester]	2
Cc1nc2c(s1)C(c1cc(Cl)ccc1OCC(=O)O)N(C(=O)OCc1ccccc1)CC2 (racemic) [Example 15, (±)-4-(2-Carboxymethoxy-5-chloro-phenyl)-2-methyl-6,7-dihydro-4H-thiazolo[5,4-c]pyridine-5-carboxylic acid benzyl ester]	6.2
O=C(O)COc1ccc(Cl)cc1[C@@H]1c2scnc2CCN1C(=O)[C@@H]1C[C@H]1c1ccc(F)cc1 [Example 8, (4-Chloro-2-{(R)-5-[(1R,2R)-2-(4-fluoro-phenyl)-cyclopropanecarbonyl]-4,5,6,7-tetrahydro-thiazolo[5,4-c]pyridin-4-yl}-phenoxy)-acetic acid]	5
C[C@H](CC(=O)N1CCc2ncsc2C1c1cc(Cl)ccc1OCC(=O)O)c1ccccc1 (mixture of isomers) [Example 38, (±)-{4-Chloro-2-[5-((R)-3-phenyl-butyryl)-4,5,6,7-tetrahydro-thiazolo[5,4-c]pyridin-4-yl]-phenoxy}-acetic acid]	12.2
CC(=O)Nc1nc2c(s1)C(c1cc(Cl)ccc1OCC(=O)O)N(C(=O)OCc1ccccc1)CC2 (racemic) [Example 116, (±)-2-Acetylamino-4-(2-carboxymethoxy-5-chloro-phenyl)-6,7-dihydro-4H-thiazolo[5,4-c]pyridine-5-carboxylic acid benzyl ester]	857
O=C(O)COc1ccc(Cl)cc1C1c2scnc2CCN1C(=O)CCN1CCc2ccccc21 (racemic) [Example 52, (±)-{4-Chloro-2-[5-(3-2,3-dihydro-indol-1-yl-propionyl)-4,5,6,7-tetrahydro-thiazolo[5,4-c]pyridin-4-yl]-phenoxy}-acetic acid]	17.7
Cc1ccc(OCC(=O)N2CCc3ncsc3C2c2cc(Cl)ccc2OCC(=O)O)c(C)n1 (racemic) [Example 32, (±)-(4-Chloro-2-{5-[2-(2,6-dimethyl-pyridin-3-yloxy)-acetyl]-4,5,6,7-tetrahydro-thiazolo[5,4-c]pyridin-4-yl}-phenoxy)-acetic acid]	83.2
O=C(O)COc1ccc(Cl)cc1C1c2sc(-c3ccccc3)nc2CCN1C(=O)OCc1ccccc1 (racemic) [Example 112, (±)-4-(2-Carboxymethoxy-5-chloro-phenyl)-2-phenyl-6,7-dihydro-4H-thiazolo[5,4-c]pyridine-5-carboxylic acid benzyl ester]	30.9
Cc1nc2c(s1)[C@H](c1cc(Cl)ccc1OCC(=O)O)N(C(=O)[C@@H]1C[C@H]1c1ccccc1)CC2 [Example 11, {4-Chloro-2-[(S)-2-methyl-5-((1R,2R)-2-phenyl-cyclopropanecarbonyl)-4,5,6,7-tetrahydro-thiazolo[5,4-c]pyridin-4-yl]-phenoxy}-acetic acid]	570
Cc1ccccc1[C@@H]1C[C@H]1C(=O)N1CCc2ncsc2C1c1cc(Cl)ccc1OCC(=O)O (mixture of isomers) [Example 25, (±)-{4-Chloro-2-[trans-5-(2-o-tolyl-cyclopropanecarbonyl)-4,5,6,7-tetrahydro-thiazolo[5,4-c]pyridin-4-yl]-phenoxy}-acetic acid]	6.5
O=C(O)COc1ccc(Cl)cc1C1c2scnc2CCN1C(=O)Cc1cccc2ccccc12 (racemic) [Example 50, (±)-{4-Chloro-2-[5-(2-naphthalen-1-yl-acetyl)-4,5,6,7-tetrahydro-thiazolo[5,4-c]pyridin-4-yl]-phenoxy}-acetic acid]	12.6
Cc1nc2c(s1)[C@@H](c1cc(Cl)ccc1OCC(=O)O)N(C(=O)[C@@H]1C[C@H]1c1ccccc1)CC2 [Example 10, {4-Chloro-2-[(R)-2-methyl-5-((1R,2R)-2-phenyl-cyclopropanecarbonyl)-4,5,6,7-tetrahydro-thiazolo[5,4-c]pyridin-4-yl]-phenoxy}-acetic acid]	1.5
O=C(O)COc1ccc(Cl)cc1C1c2scnc2CCN1C(=O)CC1CCCCC1 (racemic) [Example 48, (±)-{4-Chloro-2-[5-(2-cyclohexyl-acetyl)-4,5,6,7-tetrahydro-thiazolo[5,4-c]pyridin-4-yl]-phenoxy}-acetic acid]	73
CCn1nc(C)cc1CCOC(=O)N1CCc2ncsc2C1c1cc(Cl)ccc1OCC(=O)O (racemic) [Example 91, (±)-4-(2-Carboxymethoxy-5-chloro-phenyl)-6,7-dihydro-4H-thiazolo[5,4-c]pyridine-5-carboxylic acid 2-(2-ethyl-5-methyl-2H-pyrazol-3-yl)-ethyl ester]	3.7

More lines, now with the values ahead:

IC50 [nM]	Structure (SMILES)
1.4	O=C(O)COc1ccc(Cl)cc1[C@@H]1c2scnc2CCN1C(=O)OCCCF [Example 74, (R)-4-(2-Carboxymethoxy-5-chloro-phenyl)-6,7-dihydro-4H-thiazolo[5,4-c]pyridine-5-carboxylic acid 3-fluoro-propyl ester]
1.3	O=C(O)COc1ccc(Cl)cc1C1c2scnc2CCN1C(=O)OCc1cc(F)ccc1F (racemic) [Example 93, (±)-4-(2-Carboxymethoxy-5-chloro-phenyl)-6,7-dihydro-4H-thiazolo[5,4-c]pyridine-5-carboxylic acid 2,5-difluoro-benzyl ester]
3.5	O=C(O)COc1ccc(Cl)cc1C1c2scnc2CCN1C(=O)/C=C/c1ccc(F)cc1F (racemic) [Example 57, (±)-(4-Chloro-2-{5-[(E)-3-(2,4-difluoro-phenyl)-acryloyl]-4,5,6,7-tetrahydro-thiazolo[5,4-c]pyridin-4-yl}-phenoxy)-acetic acid]
2.3	O=C(O)COc1ccc(Cl)cc1C1c2scnc2CCN1C(=O)OCCc1cccc(F)c1 (racemic) [Example 77, (±)-4-(2-Carboxymethoxy-5-chloro-phenyl)-6,7-dihydro-4H-thiazolo[5,4-c]pyridine-5-carboxylic acid 2-(3-fluoro-phenyl)-ethyl ester]
19.6	O=C(O)COc1ccc(Cl)cc1C1c2scnc2CCN1C(=O)CCOc1ccc(F)cc1 (racemic) [Example 21, (±)-(4-Chloro-2-{5-[3-(4-fluoro-phenoxy)-propionyl]-4,5,6,7-tetrahydro-thiazolo[5,4-c]pyridin-4-yl}-phenoxy)-acetic acid]
8.3	O=C(O)COc1ccc(F)cc1C1c2scnc2CCN1C(=O)OCc1ccccc1 (racemic) [Example 118, (±)-4-(2-Carboxymethoxy-5-fluoro-phenyl)-6,7-dihydro-4H-thiazolo[5,4-c]pyridine-5-carboxylic acid benzyl ester]
6.4	O=C(O)COc1ccc(Cl)cc1C1c2scnc2CCN1C(=O)OCCc1ccccc1 (racemic) [Example 88, (±)-4-(2-Carboxymethoxy-5-chloro-phenyl)-6,7-dihydro-4H-thiazolo[5,4-c]pyridine-5-carboxylic acid phenethyl ester]
3	O=C(O)COc1ccc(Cl)cc1C1c2scnc2CCN1C(=O)OCc1ccccc1F (racemic) [Example 79, (±)-4-(2-Carboxymethoxy-5-chloro-phenyl)-6,7-dihydro-4H-thiazolo[5,4-c]pyridine-5-carboxylic acid 2-fluoro-benzyl ester]
